Laboratory results reported in patent US6271342A, “Sugar-modified cytostatics” (Bayer Aktiengesellschaft, priority 1995, dated 2001).
Values joined by “and” are separate entries in the source; they are usually repeats but may differ in a detail not shown here. Equal values may be shown once.

Columns and labels:
HT 29 = assay: Growth inhibition test (MTT) for cytotoxic properties; format: cell-based, human
Summary of the method: (§1)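 IC50 values come from an MTT read at 540 nm (5 h at 37 °C, 5 mg/ml MTT stock), taken on day 3 and day 6. Cells (HT 29, SW 480; 50,000 cells/ml in RPMI/10% FCS) were pre-cultured 1 day, then compound in DMSO was added.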

SW 480 = assay: as above; format: cell-based, human
Summary of the method: as §1

B 16 F 10 = assay: as above; format: cell-based, mouse; conditions: Table 1b
Summary of the method: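 Cells in RPMI 1640 with 10% FCS pre-cultured 1 day at 37° C, then exposed to test substances in DMSO; growth checked after day 3 and day 6. Read-out by MTT, 5 h incubation, isopropanol solubilization, extinction at 540 nm.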

[1] = tested on: large-cell lung carcinoma LXFL 529; assay: In vivo inhibition of tumour growth using a naked mouse model; parameters: species or system Athymic naked mice (NMRI nu/nu strain)
Source text: Athymic naked mice (NMRI nu/nu strain) were used for all the in vivo experiments for investigation of the inhibition of tumour growth. The large-cell lung carcinoma LXFL 529 selected was developed by serial passage in naked mice.
The tumour was implanted subcutaneously in both flanks of nu/nu naked mice 6 to 8 weeks old. Treatment was started, regardless of the doubling time, as soon as the tumours had reached a diameter of 5-7 mm. The mice were allocated to the treatment group and the control group (5 mice per group with 8-10 evaluable tumours) by randomization. The individual tumours of the control group all grew progressively.
The size of the tumours was measured in two dimensions by means of a sliding gauge. The tumour volume, which correlates well with the cell count, was then used for all the evaluations. The volume was calculated according to the equation "length×breadth×breadth/2" ([a×b^2 ]/2, a and b represent two diameters at right angles). The values of the relative tumour volume (RTV) were calculated for each individual tumour by dividing the tumour size on day X with the tumour size on day 0 (at the time of randomization). The mean RTV values were then used for the further evaluation.
The inhibition of the increase in the tumour volume (tumor volume of the test group/control group, T/C, in per cent) was the concluding measurement value.
All the compounds were administered according to an intermittent plan in each case on day 1, 5 and 9. Furthermore, all the compounds were administered intraperitoneally (i.p.) using water as the solvent.

[2] = tested on: bone marrow parent cells of the mouse; assay: CSF-induced proliferation of bone marrow parent cells, in vitro; format: cell-based; conditions: recombinant murine GM-CSF, 7 days
Description: Bone marrow cells are flushed out of the femur of mice. 10^5 cells are incubated in McCoy SA medium (0.3% agar) together with recombinant murine GM-CSF (Genzyme; parent cell colony formation) and the substances (10^-4 to 100 μg/ml) at 37° C. and 7% CO2. 7 days later, the colonies ([…]) and clusters (17-50 cells) are counted.

tumour cell lines = assay: Growth inhibition test, carbohydrate-free comparison compounds (cell line not stated); format: cell-based
Description: The human colon cell lines SW 480 and HT 29 (ATCC no. CCL 228 and HBT-38) and the mouse melanoma cell line B 16 F 10 were cultured in Roux dishes in RPMI 1640 medium with addition of 10% FCS. The cultures were then trypsinized and taken up in RPMI plus 10% FCS to a cell count of 50,000 cells/ml. 100 μl of cell suspension/well were introduced into a 96 microwell plate and incubated for 1 day at 37° C. in a CO2 incubating cabinet. A further 100 μl of RPMI medium and 1 μl of dimethyl sulphoxide with the test substances were then added. The growth was checked after day 3 and day 6. 40 μl of MTT solution (3-(4,5-dimethylthiazol-2-yl)-2,5-diphenyltetrazoline bromide) with an initial concentration of 5 mg/ml of H2 O were added to each microwave. The plate was incubated for 5 hours in a CO2 incubating cabinet at 37° C. The medium was then sucked off and 100 μl of i-propanol/well were added. After shaking for 30 minutes with 100 μl of H2 O, the extinction was measured at 540 nm with a Titertek Multiskan MCC/340 (Flow).

[3] = Investigation of organ distribution in naked mice carrying SW 480 tumours; format: in vivo, Athymic naked mice (strain NMRI nu/nu)
Source text: Athymic naked mice (strain NMRI nu/nu) bred in "Drug Development Laboratory, Oncotest GmbH", Prof. H. H. Fiebig, Freiburg, were used for all the experiments. The animals were kept in Macrolon cages under laminar flow conditions. Tissue of the cell line SW 480 which had been grown beforehand in several passages in the naked mice, was used as the tumour material.
Two tumours per animal were implanted subcutaneously in the two flanks of the naked mice 6 to 8 weeks old. The animals were kept for 26 to 27 days until the time of randomization. The average tumour size was then 500 mg, corresponding to a tumour diameter of about 10 mm.
The pharmacokinetics themselves proceeded as follows: the substance to be investigated was injected into the naked mice and the mice were then put back in the cages until samples were taken after 1/2 hour and after 4 hours. The taking of samples itself began with sampling of blood. For this, the mouse was anaesthetized by means of anaesthetic ether (duration 1/2 to one minute). 0.5 hour and 4 hours after injection of the substance, the abdominal cavity was opened and the mouse was exsanguinated under anaesthesia via the Vena cava caudalis in the course of 1 to 2 minutes and then sacrificed by breaking its neck. As a result, central circulatory arrest occurred and organ perfusion was suppressed. The individual organs were then exposed and removed, an operation which took about 5 minutes. Immediately thereafter, the organ samples and then the remainder of the body were weighed and frozen in liquid nitrogen.
The substance "conjugate 1" is administered i.p. in an amount of 300 mg/kg of body weight and the substance "conjugate 2" is administered i.v. into the tail vein in an amount of 100 mg/kg. 5 animals are used per substance and time.
5, 10, 50, 100 and 200 μg of substance, dissolved in ethanol/water (1:1, v/v) were added to 1 g of bovine liver. The samples were then ground in a mortar with 1 g of sea sand and 2.5 ml of cooled ethanol/water (1:1, v/v) and centrifuged at 3500 rpm for 2 minutes. After removal of the supernatant, the residue was again mixed with 2.5 ml of ethanol/water and centrifuged and the supernatants were combined. In each case 100 μl were taken and analyzed by HPLC.
The organs were worked up analogously to A, the entire organs being broken down with 2.5 ml of ethanol/water and extracted.
The amount of blood taken was mixed with 2 ml of ethanol/water (1:1, v/v) and centrifuged for 2 minutes at 3500 rpm, and the supernatant was decanted. 2 ml of ethanol/water (1:1, v/v) were again added to the residue, the mixture was centrifuged and the supernatants were combined. In each case 100 μl of the combined supernatants were analyzed by HPLC. The HPLC conditions used under A were used. [drawing 14]

[4] = as above; format: in vivo, Athymic naked mice (strain NMRI nu/nu); conditions: after conjugate 1 i.p. 300 mg/kg
[5] = Table 1a, glycoconjugates of batracyline
[6] = Kidney, after conjugate 2 i.v. 100 mg/kg
[7] = Tumour, after conjugate 2 i.v. 100 mg/kg

## CC1OC(Oc2ccc(NC(=S)NC(CCCCN)C(=O)NC3C=CCC4CN(c5c(F)cc6c(=O)c(C(=O)[O-])cn(C7CC7)c6c5Cl)CC43)cc2)C(O)C(OCC(=O)[O-])C1O.[Na+].[Na+] (mixture of isomers) [Example 12.6, N-{N^α -[O-(3-O-Carboxymethyl-β-L-fucosyl)-4-hydroxy-phenylamino-thiocarbonyl]-lysyl}-quinolone-a, di-sodium salt]
HT 29; Table 1b
  IC50: 7 µM
SW 480; Table 1b
  IC50: 4 µM
B 16 F 10
  IC50: 0.3 µM
[1]; i.p. in water on day 1, 5 and 9
  Dose [mg/kg/day], maximum tolerated dose (MTD): 100 mg/kg/day
[1]; individual mice, treated at MTD i.p. on day 1, 5 and 9, di-sodium salt
  Survival time: 23 days and > 26 days and 26 days
[1]; on day 19, treated at MTD i.p. on day 1, 5 and 9
  Relative tumour volume [% of day 0]: 300.7 % of day 0
[1]; on day 19, tumour volume of test group/control group
  Optimum T/C: 19.4%
[2]
  IC50 [μg/ml] CSF-induced proliferation of bone marrow parent cells of the mouse: 0.3 µg/mL

## N-[N^α,N^ε -bis-(4-hydroxyphenylamino-thiocarbonyl)-lysyl-D-alanyl]-batracyline
Tumour cell lines
  IC50: > 250 µM

## N-[N^α,N^ε -bis-(4-hydroxyphenylamino-thiocarbonyl)-lysyl]-batracyline
Tumour cell lines
  IC50: > 250 µM

## batracyline
HT 29; [5]
  IC50: 20 µM
SW 480; [5]
  IC50: 25 µM
[3]; Kidney, after conjugate 1 i.p. 300 mg/kg
  Mean 4 hours (μg/g of organ): 27.5 μg/g of organ
[3]; [6]
  Mean 0.5 hour (μg/g of organ): 10.7 μg/g of organ
  Mean 4 hours (μg/g of organ): 0.8 μg/g of organ
[3]; Liver, after conjugate 1 i.p. 300 mg/kg
  Mean 4 hours (μg/g of organ): 22.4 μg/g of organ
[3]; [7]
  Mean 0.5 hour (μg/g of organ): 2.5 μg/g of organ
  Mean 4 hours (μg/g of organ): 3.12 μg/g of organ
[4]; Kidney
  Mean 1 hour (μg/g of organ): 26.1 μg/g of organ
[4]; Liver
  Mean 1 hour (μg/g of organ): 34.1 μg/g of organ
